Reference: patent US8957049B2, “Inhibitors of fatty acid amide hydrolase” (Infinity Pharmaceuticals, Inc., priority 2008, dated 2015)

The compounds below were run against T1, human FAAH (Homo sapiens, UniProt O00519) (assay: Human FAAH biochemical inhibition assay (AMC arachidonoyl amide fluorescence)). Conditions: class given in each Example, read-out: Activity (Ki, inhibition of human FAAH).
T1 construct: host or cells: COS-7 cells, transient transfection (FuGENE 6); 13,000 g membrane fraction solubilised in 1% Triton X-100
T1 sequence (O00519 1-579): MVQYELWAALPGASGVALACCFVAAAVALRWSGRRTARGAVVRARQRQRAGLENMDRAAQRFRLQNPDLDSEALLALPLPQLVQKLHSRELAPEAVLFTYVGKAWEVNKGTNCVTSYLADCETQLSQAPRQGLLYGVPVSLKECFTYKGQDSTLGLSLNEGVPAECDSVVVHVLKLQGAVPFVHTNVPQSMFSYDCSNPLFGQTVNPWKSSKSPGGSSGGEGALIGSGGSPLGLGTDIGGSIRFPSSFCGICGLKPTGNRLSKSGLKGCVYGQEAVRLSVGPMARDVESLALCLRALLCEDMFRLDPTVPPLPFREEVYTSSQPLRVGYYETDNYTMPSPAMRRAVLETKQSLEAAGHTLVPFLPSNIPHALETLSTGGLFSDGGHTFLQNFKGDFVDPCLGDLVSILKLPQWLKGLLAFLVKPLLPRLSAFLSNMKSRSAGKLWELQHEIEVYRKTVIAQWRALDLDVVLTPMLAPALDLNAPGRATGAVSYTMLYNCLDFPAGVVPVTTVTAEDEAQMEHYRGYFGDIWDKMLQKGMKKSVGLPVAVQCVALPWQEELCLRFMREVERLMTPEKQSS
Summary of the method: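 Human FAAH from solubilized membranes of transiently transfected COS-7 cells, 0.1 mg/mL in 50 mM Hepes pH 7.5, 1 mM EDTA, 0.2% Triton X-100, preincubated 30 min at room temperature with 3-fold serially diluted inhibitor. Hydrolysis of AMC arachidonoyl amide read by fluorescence (ex 355/em 460 nm). Data fitted to single-site competitive inhibition with Km fixed at 9 μM.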

| Compound | Ki |
| --- | --- |
| CN(Cc1ccccc1)c1ccc2cc(B(O)O)ccc2n1 [Compound 204] | ≤ 10 nM |
| CN(c1ccccc1)c1ccc2cc(B(O)O)ccc2n1 [Compound 205] | 10 to 100 nM |
| OB(O)c1ccc2nc(Nc3ccccc3)ccc2c1 [Compound 206] | ≤ 10 nM |
| OB(O)c1ccc2nc(N3CCCc4ccccc43)ccc2c1 [Compound 207] | 10 to 100 nM |
| OB(O)c1ccc2cc(Oc3ncccn3)ccc2c1 [Compound 208] | ≤ 10 nM |
| OB(O)c1ccc2nc(Oc3cccnc3)ccc2c1 [Compound 209] | ≤ 10 nM |
| Cc1cc2cc(B(O)O)ccc2nc1Oc1ccccc1 [Compound 210] | ≤ 10 nM |
| OB(O)c1ccc2nc(Oc3ccccc3)cnc2c1 [Compound 211] | 10 to 100 nM |
| Cc1cc(Oc2ccccc2)nc2c(C)cc(B(O)O)cc12 [Compound 212] | 10 to 100 nM |
| Cc1cc(Oc2ccccc2)nc2ccc(B(O)O)cc12 [Compound 213] | ≤ 10 nM |
| OB(O)c1ccc2nc(Oc3ccccc3)sc2c1 [Compound 214] | ≤ 10 nM |
| OB(O)c1ccc2nc(Oc3ccccn3)ccc2c1 [Compound 215] | ≤ 10 nM |
| OB(O)c1ccc2cc(Oc3ccccc3)ccc2c1 [Compound 216] | ≤ 10 nM |
| OB(O)c1ccc2cn(Cc3ccccc3)nc2c1 [Compound 217] | ≤ 10 nM |
| OB(O)c1ccc(-c2cccc(-c3ccccc3)c2)cc1 [Compound 219] | 10 to 100 nM |
| CC(C)Cn1cc(B(O)O)cn1 [Compound 220] | 100 to 1000 nM |
| OB(O)c1ccc2nc(COc3ccccc3)ccc2c1 [Compound 221] | 10 to 100 nM |
| CC(C)CCn1cc(-c2ccc(B(O)O)cc2)cn1 [Compound 222] | ≤ 10 nM |
| Cc1nc(-c2ccccc2)sc1-c1ccc(B(O)O)c(F)c1 [Compound 225] | 10 to 100 nM |
| OB(O)c1ccc(-c2cnn(Cc3ccccc3)c2)cc1F [Compound 226] | ≤ 10 nM |
| OB(O)c1ccc(-c2cnn(Cc3ccccc3)c2)cc1 [Compound 227] | ≤ 10 nM |
| COc1ccc2cc(-c3ccc(B(O)O)cc3)ccc2c1 [Compound 228] | 10 to 100 nM |
| OB(O)c1ccc(-c2cccc3ncccc23)cc1F [Compound 229] | 10 to 100 nM |
| OB(O)c1ccc(-c2cccc3[nH]ccc23)cc1F [Compound 230] | 10 to 100 nM |

| Compound | Ki |
| --- | --- |
| OB(O)c1ccc(-n2cc(-c3ccccc3)cn2)cc1 [Compound 231] | ≤ 10 nM |
| OB(O)c1ccc(-c2cnn(-c3ccccc3)c2)cc1 [Compound 232] | ≤ 10 nM |
| CC(C)(C)OC(=O)N1CCC(c2ccc(B(O)O)cc2)CC1 [Compound 233] | ≤ 10 nM |
| CN(CCc1ccc(B(O)O)cc1)C(=O)OC(C)(C)C [Compound 234] | ≤ 10 nM |
| CN(CCCc1ccc(B(O)O)cc1)C(=O)OC(C)(C)C [Compound 235] | ≤ 10 nM |
| O=S(=O)(c1ccccc1)N1CCC(c2ccc(B(O)O)cc2)CC1 [Compound 236] | 10 to 100 nM |
| CN(CCc1ccc(B(O)O)cc1)S(=O)(=O)c1ccccc1 [Compound 237] | ≤ 10 nM |
| CN(CCCc1ccc(B(O)O)cc1)S(=O)(=O)c1ccccc1 [Compound 238] | ≤ 10 nM |
| O=C(CCc1nnc(-c2ccc(B(O)O)cc2)o1)N1CCCCC1 [Compound 239] | 10 to 100 nM |
| OB(O)c1ccc2nc(Cc3ccccc3)oc2c1 [Compound 241] | ≤ 10 nM |
| OB(O)c1ccc2oc(CCc3ccccc3)nc2c1 [Compound 242] | ≤ 10 nM |
| OB(O)c1ccc2nc(CCc3ccccc3)oc2c1 [Compound 243] | ≤ 10 nM |
| CCCc1nc2ccc(B(O)O)cc2o1 [Compound 244] | ≤ 10 nM |
| CCCCCc1nc2ccc(B(O)O)cc2o1 [Compound 245] | ≤ 10 nM |
| OB(O)c1ccc2nc(CCCC(F)(F)F)oc2c1 [Compound 246] | ≤ 10 nM |
| O=C(CCc1nc2ccc(B(O)O)cc2o1)N1CCCCC1 [Compound 247] | 10 to 100 nM |
| O=C1CC(c2nc3ccc(B(O)O)cc3o2)CN1c1ccccc1 (stereo not drawn) [Compound 248] | 10 to 100 nM |
| O=C1CC(c2nc3ccc(B(O)O)cc3o2)CN1Cc1ccccc1 (stereo not drawn) [Compound 249] | 10 to 100 nM |
| OB(O)c1cc2oc(CCc3ccccc3)nc2cc1F [Compound 253] | ≤ 10 nM |
| OB1c2cc3c(cc2C=NN1Cc1ccccc1)OCO3 [Compound 254] | > 1000 nM |
| COc1ccc2c(c1)B(O)N(Cc1ccccc1)N=C2 [Compound 255] | > 1000 nM |
| OB1c2sccc2C=NN1Cc1ccccc1 [Compound 256] | > 1000 nM |
| OB1c2cscc2C=NN1Cc1ccccc1 [Compound 257] | > 1000 nM |
| OB1NN=Cc2cc(OCc3ccccc3)ccc21 [Compound 258] | > 1000 nM |

| Compound | Ki |
| --- | --- |
| OB(O)c1ccccc1-c1nc2ncccc2o1 [Compound 259] | > 1000 nM |
| CCCc1nnc(-c2cc(OC)ccc2B(O)O)o1 [Compound 260] | > 1000 nM |
| CCCc1nnc(-c2cc(F)ccc2B(O)O)o1 [Compound 261] | > 1000 nM |
| CCCc1nnc(-c2c(F)cccc2B(O)O)o1 [Compound 262] | > 1000 nM |
| O=C1CCCN1CCc1nnc(-c2ccccc2B(O)O)o1 [Compound 263] | > 1000 nM |
| OB(O)c1ccccc1-c1nnc(-c2ccco2)o1 [Compound 264] | > 1000 nM |
| OB(O)c1ccccc1-c1nnc(CCc2ccccc2)o1 [Compound 265] | > 1000 nM |
| CCCc1nnc(-c2ccccc2B(O)O)s1 [Compound 266] | > 1000 nM |
| CCCc1nnc(-c2cc(OCCc3ccccc3)ccc2B(O)O)s1 [Compound 267] | ≤ 10 nM |
| Cn1cncc1-c1nnc(-c2cc(OCCc3ccccc3)ccc2B(O)O)o1 [Compound 268] | 10 to 100 nM |
| Cc1nc(-c2nnc(-c3cc(OCCc4ccccc4)ccc3B(O)O)o2)cs1 [Compound 269] | 100 to 1000 nM |
| CCCCOc1ccc(B(O)O)c(-c2nnc(CCC)o2)c1 [Compound 271] | 10 to 100 nM |
| CCCCOc1ccc(B(O)O)c(-c2nnc(C)o2)c1 [Compound 272] | 10 to 100 nM |
| CCCc1noc(-c2ccc(B(O)O)cc2)n1 [Compound 272] | ≤ 10 nM |
| CCCc1noc(-c2cc(OCCc3ccccc3)ccc2B(O)O)n1 [Compound 273] | 10 to 100 nM |
| CCCc1cnc(-c2cc(OCCc3ccccc3)ccc2B(O)O)s1 [Compound 276] | 10 to 100 nM |
| CCCCOc1ccc2c(c1)C=NOB2O [Compound 277] | 100 to 1000 nM |
| OB(O)c1ccc2nc(CCc3ccccc3)sc2c1 [Compound 278] | ≤ 10 nM |
| OB(O)c1ccc(C2CCN(Cc3ccccc3)CC2)cc1 [Compound 279] | 100 to 1000 nM |
| CC(C)c1ccc(CN2CCC(c3ccc(B(O)O)cc3)CC2)cc1 [Compound 280] | 10 to 100 nM |
| CCCCCc1nnc(-c2ccccc2B(O)O)o1 [Compound 281] | > 1000 nM |
| CN(C)c1nnc(-c2ccccc2B(O)O)o1 [Compound 282] | > 1000 nM |
| CC(C)c1nnc(-c2ccccc2B(O)O)o1 [Compound 283] | > 1000 nM |
| CC(C)Cc1nnc(-c2ccccc2B(O)O)o1 [Compound 284] | > 1000 nM |

| Compound | Ki |
| --- | --- |
| OB(O)c1ccccc1-c1nnc(CCC(F)(F)F)o1 [Compound 285] | > 1000 nM |
| CCOc1nnc(-c2ccccc2B(O)O)o1 [Compound 286] | > 1000 nM |
| O=C(/C=C/c1cc(OCCc2ccccc2)ccc1B(O)O)NCc1cccnc1 [Compound 287] | > 1000 nM |
| O=C(/C=C/c1cc(OCCc2ccccc2)ccc1B(O)O)NCc1ccco1 [Compound 288] | > 1000 nM |
| CC(C)c1cccc(-c2ccc(B(O)O)c(F)c2)c1 [Compound 289] | ≤ 10 nM |
| OB(O)c1ccc2oc(CCc3ccccc3)cc2c1 [Compound 291] | ≤ 10 nM |
| OB(O)c1ccc2cc(CCc3ccccc3)oc2c1 [Compound 293] | ≤ 10 nM |
| CCCc1nnc(-c2cc(Oc3cccnc3)ccc2B(O)O)o1 [Compound 296] | 10 to 100 nM |
| OB(O)c1ccc(Oc2cncc(F)c2)cc1 [Compound 297] | ≤ 10 nM |
| OB(O)c1ccc(Oc2ccc(F)nc2)cc1F [Compound 298] | ≤ 10 nM |
| CC(C)(C)OC(=O)N1CCC(Cc2nc3ccc(B(O)O)cc3o2)CC1 [Compound 299] | ≤ 10 nM |
| CC(C)c1ccc(CN2CCC(Cc3nc4ccc(B(O)O)cc4o3)CC2)cc1 [Compound 301] | 10 to 100 nM |
| OB(O)c1ccc2nc(CC3CCN(Cc4ccccc4)CC3)oc2c1 [Compound 302] | 10 to 100 nM |
| CCCN1CCC(Cc2nc3ccc(B(O)O)cc3o2)CC1 [Compound 303] | 100 to 1000 nM |
| CC(C)CN1CCC(Cc2nc3ccc(B(O)O)cc3o2)CC1 [Compound 304] | > 1000 nM |
| O=S(=O)(c1ccccc1)N1CCC(Cc2nc3ccc(B(O)O)cc3o2)CC1 [Compound 305] | 10 to 100 nM |
| O=C(CCc1ccccc1)N1CCC(Cc2nc3ccc(B(O)O)cc3o2)CC1 [Compound 306] | ≤ 10 nM |
| CCCCCN1C(=O)c2ccc(B(O)O)cc2C1=O [Compound 307] | ≤ 10 nM |
| O=C1c2ccc(B(O)O)cc2C(=O)N1Cc1ccccc1 [Compound 308] | ≤ 10 nM |
| O=C1c2ccc(B(O)O)cc2C(=O)N1CCc1ccccc1 [Compound 309] | ≤ 10 nM |
| CN(CCc1ccc(B(O)O)c(F)c1)C(=O)OC(C)(C)C [Compound 311] | ≤ 10 nM |
